Measured values: PubChem BioAssay AID192 (DTP/NCI, 2004)
Inconclusive results and toxic doses are left out.

Tested on: BDF1 mice, B16 melanoma ip, median survival T/C
Experiment: NCI In Vivo Anticancer Drug Screen. Data for tumor model B16 Melanoma (intraperitoneal) in B6D2F1 (BDF1) mice
Conditions: endpoint: median survival time, higher = longer survival
Method in brief: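 Read-out: survival or tumor size, given as treated/control ratio. Controls received vehicle only; animals bore transplantable tumors.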

[1] = dose: 25.0 mg/kg/injection, schedule: Q01DX009 (ip), vehicle: saline with Tween-80
[2] = dose: 50.0 mg/kg/injection, schedule: Q01DX009 (ip), vehicle: saline with Tween-80
[3] = dose: 100.0 mg/kg/injection, schedule: Q01DX009 (ip), vehicle: saline with Tween-80
[4] = dose: 400.0 mg/kg/injection, schedule: Q01DX009 (ip), vehicle: saline with Tween-80
[5] = dose: 400.0 mg/kg/injection, schedule: Q04DX003 (ip), vehicle: saline with Tween-80
[6] = dose: 1.56 mg/kg/injection, schedule: Q01DX009 (ip), vehicle: saline
[7] = dose: 6.25 mg/kg/injection, schedule: Q01DX009 (ip), vehicle: saline
[8] = dose: 50.0 mg/kg/injection, schedule: Q01DX009 (ip), vehicle: saline
[9] = dose: 100.0 mg/kg/injection, schedule: Q01DX009 (ip), vehicle: saline
[10] = dose: 200.0 mg/kg/injection, schedule: Q01DX009 (ip), vehicle: saline
[11] = dose: 400.0 mg/kg/injection, schedule: Q01DX009 (ip), vehicle: saline
[12] = dose: 2.5 mg/kg/injection, schedule: Q01DX009 (ip), vehicle: saline with Tween-80
[13] = dose: 50.0 mg/kg/injection, schedule: Q01DX009 (ip), vehicle: Klucel (hydroxypropylcellulose) (HPC)
[14] = dose: 100.0 mg/kg/injection, schedule: Q01DX009 (ip), vehicle: Klucel (hydroxypropylcellulose) (HPC)
[15] = dose: 200.0 mg/kg/injection, schedule: Q01DX009 (ip), vehicle: Klucel (hydroxypropylcellulose) (HPC)
[16] = dose: 400.0 mg/kg/injection, schedule: Q01DX009 (ip), vehicle: Klucel (hydroxypropylcellulose) (HPC)
[17] = dose: 100.0 mg/kg/injection, schedule: Q04DX003 (ip), vehicle: saline with Tween-80
[18] = dose: 200.0 mg/kg/injection, schedule: Q04DX003 (ip), vehicle: saline with Tween-80

## CC1C=NNC1=O (stereo unspecified)
[1]
  T/C: 90 % of control
[2]
  T/C: 90 % of control
[3]
  T/C: 95 % of control
dose: 100.0 mg/kg/injection, schedule: Q04DX003 (ip), vehicle: other
  T/C: 105 % of control
dose: 125.0 mg/kg/injection, schedule: Q01DX009 (ip), vehicle: other
  T/C: 105 % of control
dose: 125.0 mg/kg/injection, schedule: Q04DX003 (ip), vehicle: other
  T/C: 100 % of control
dose: 200.0 mg/kg/injection, schedule: Q01DX009 (ip), vehicle: saline with Tween-80
  T/C: 90 % of control
dose: 200.0 mg/kg/injection, schedule: Q04DX003 (ip), vehicle: other
  T/C: 95 % of control
dose: 250.0 mg/kg/injection, schedule: Q01DX009 (ip), vehicle: other
  T/C: 100 % of control
dose: 250.0 mg/kg/injection, schedule: Q04DX003 (ip), vehicle: other
  T/C: 100 % of control
dose: 266.0 mg/kg/injection, schedule: Q04DX003 (ip), vehicle: saline with Tween-80
  T/C: 197 % of control
[4]
  T/C: 116 % of control
dose: 400.0 mg/kg/injection, schedule: Q04DX003 (ip), vehicle: other
  T/C: 92 % of control
[5]
  T/C: 200 % of control
dose: 500.0 mg/kg/injection, schedule: Q01DX009 (ip), vehicle: other
  T/C: 111 % of control
dose: 500.0 mg/kg/injection, schedule: Q04DX003 (ip), vehicle: other
  T/C: 102 % of control
dose: 600.0 mg/kg/injection, schedule: Q04DX003 (ip), vehicle: saline with Tween-80
  T/C: 183 % of control

## C[As](C)Sc1ncccn1
dose: 3.13 mg/kg/injection, schedule: Q01DX009 (ip), vehicle: Klucel (hydroxypropylcellulose) (HPC)
  T/C: 100 % of control
dose: 6.25 mg/kg/injection, schedule: Q01DX009 (ip), vehicle: Klucel (hydroxypropylcellulose) (HPC)
  T/C: 100 % of control

## NC(=O)CNC1=C(N2CC2)C(=O)C(NCC(N)=O)=C(N2CC2)C1=O
dose: 0.5 mg/kg/injection, schedule: Q01DX009 (ip), vehicle: saline
  T/C: 96 % of control
dose: 1.0 mg/kg/injection, schedule: Q01DX009 (ip), vehicle: saline
  T/C: 115 % of control
dose: 4.0 mg/kg/injection, schedule: Q01DX009 (ip), vehicle: saline
  T/C: 124 % of control

## Cc1ccc([N+](=O)[O-])cc1NC(=O)Oc1ccc(Cl)cc1Cl
[1]
  T/C: 93 % of control
[2]
  T/C: 90 % of control

## O=CC(=O)c1ccc(O)cc1
[6]
  T/C: 105 % of control
dose: 3.12 mg/kg/injection, schedule: Q01DX009 (ip), vehicle: saline
  T/C: 97 % of control
[7]
  T/C: 106 % of control

## O=C(NCCCN1CC1)C(=O)NCCCN1CC1
[6]
  T/C: 165 % of control
dose: 3.13 mg/kg/injection, schedule: Q01DX009 (ip), vehicle: saline
  T/C: 194 % of control
[7]
  T/C: 96 % of control

## O=C1Nc2ccc(Cl)cc2C(c2ccccc2)=NC1O (stereo unspecified)
[7]
  T/C: 116 % of control
[8]
  T/C: 95 % of control
[9]
  T/C: 95 % of control
[10]
  T/C: 89 % of control
[11]
  T/C: 89 % of control

## CC/C(CC(C)CC)=N\O (stereo unspecified)
[9]
  T/C: 100 % of control
[10]
  T/C: 94 % of control
[11]
  T/C: 94 % of control

## COc1ccccc1N1C(=O)C=CC1=O
dose: 0.63 mg/kg/injection, schedule: Q01DX009 (ip), vehicle: saline with Tween-80
  T/C: 93 % of control
dose: 1.25 mg/kg/injection, schedule: Q01DX009 (ip), vehicle: saline with Tween-80
  T/C: 89 % of control
[12]
  T/C: 87 % of control

## COc1ccccc1NC(=O)c1cc2ccccc2cc1O
[9]
  T/C: 121 % of control
[11]
  T/C: 118 % of control

## Oc1ccc2ccccc2c1N=Nc1ccc(F)cc1
[3]
  T/C: 119 % of control
[4]
  T/C: 108 % of control

## CCN(CC)CCNC1CCCCC1
dose: 25.0 mg/kg/injection, schedule: Q01DX009 (ip), vehicle: saline
  T/C: 102 % of control
[8]
  T/C: 112 % of control
[9]
  T/C: 98 % of control

## Nc1nc2[nH]c(=O)cnc2c(=O)[nH]1
[13]
  T/C: 88 % of control
[14]
  T/C: 86 % of control
[15]
  T/C: 99 % of control

## NC(=O)C(CC(=O)OCc1ccccc1)NC(=O)OCc1ccccc1 (stereo unspecified)
[14]
  T/C: 118 % of control
[15]
  T/C: 107 % of control
[16]
  T/C: 113 % of control

## COc1ccc(Cl)cc1NC(=O)c1ccc(Cl)cc1Cl
[17]
  T/C: 100 % of control
[18]
  T/C: 97 % of control
[5]
  T/C: 95 % of control

## NC(=O)N1OCC(N)C1=O (stereo unspecified)
[8]
  T/C: 95 % of control
[9]
  T/C: 103 % of control
[10]
  T/C: 95 % of control

## O=c1c2cccc3cccc(c32)c2nc3ccccc3n12
[12]
  T/C: 102 % of control
dose: 5.0 mg/kg/injection, schedule: Q01DX009 (ip), vehicle: saline with Tween-80
  T/C: 114 % of control

## O=C(O)C(O)C(O)C1[O][Sb][O]C1CO (stereo unspecified)
dose: 5.0 mg/kg/injection, schedule: Q01DX009 (ip), vehicle: saline
  T/C: 96 % of control
[9]
  T/C: 100 % of control
[10]
  T/C: 88 % of control

## O=S(=O)(c1ccc(Cl)cc1)c1ccc(Cl)cc1
[17]
  T/C: 100 % of control
[18]
  T/C: 97 % of control
[5]
  T/C: 100 % of control

## CCOC(=O)Nc1ccccc1
dose: 100.0 mg/kg/injection, schedule: Q04DX003 (ip), vehicle: gum acacia
  T/C: 95 % of control
dose: 200.0 mg/kg/injection, schedule: Q04DX003 (ip), vehicle: gum acacia
  T/C: 102 % of control

## CCCCNC(C)(C)C1(c2ccc(Cl)cc2)SSC(c2ccc(Cl)cc2)(C(C)(C)NCCCC)SS1 (stereo unspecified)
dose: 10.0 mg/kg/injection, schedule: Q01DX009 (ip), vehicle: Klucel (hydroxypropylcellulose) (HPC)
  T/C: 94 % of control
dose: 20.0 mg/kg/injection, schedule: Q01DX009 (ip), vehicle: Klucel (hydroxypropylcellulose) (HPC)
  T/C: 89 % of control
dose: 40.0 mg/kg/injection, schedule: Q01DX009 (ip), vehicle: Klucel (hydroxypropylcellulose) (HPC)
  T/C: 86 % of control

## CC(OC(C)c1ccccc1)c1ccccc1 (stereo unspecified)
[14]
  T/C: 113 % of control
[15]
  T/C: 106 % of control
[16]
  T/C: 103 % of control

## CCCCCCCC(=O)N(C)OC
dose: 6.25 mg/kg/injection, schedule: Q04DX003 (ip), vehicle: Klucel (hydroxypropylcellulose) (HPC)
  T/C: 107 % of control
dose: 12.5 mg/kg/injection, schedule: Q04DX003 (ip), vehicle: Klucel (hydroxypropylcellulose) (HPC)
  T/C: 96 % of control
dose: 25.0 mg/kg/injection, schedule: Q04DX003 (ip), vehicle: Klucel (hydroxypropylcellulose) (HPC)
  T/C: 112 % of control

## CC(=O)O[C@]1(C(C)=O)CC[C@H]2[C@@H]3C[C@H](C)C4=CC(=O)CC[C@]4(C)[C@H]3CC[C@@]21C
dose: 12.5 mg/kg/injection, schedule: Q01DX009 (ip), vehicle: Klucel (hydroxypropylcellulose) (HPC)
  T/C: 120 % of control
dose: 25.0 mg/kg/injection, schedule: Q01DX009 (ip), vehicle: Klucel (hydroxypropylcellulose) (HPC)
  T/C: 117 % of control
[13]
  T/C: 100 % of control
[14]
  T/C: 96 % of control
[15]
  T/C: 89 % of control
[16]
  T/C: 96 % of control
dose: 800.0 mg/kg/injection, schedule: Q01DX009 (ip), vehicle: Klucel (hydroxypropylcellulose) (HPC)
  T/C: 89 % of control
